Data taken from patent US6197335A, “Solid pharmaceutical compositions comprising a cyclosporin and an anionic surfactant” (Sherman; Bernard Charles, priority 1997, dated 2001).

Experiment: critical micelle concentration of the surfactant in water
Type: physicochemical
From the text: The ability of anionic surfactants to solubilize cyclosporins in water substantially increases when the concentration of the surfactant in water substantially exceeds the critical micelle concentration. Using sodium lauryl sulfate, for example, the critical micelle concentration is about 0.1% by weight.

critical micelle concentration: about 0.1 % by weight
Structure (SMILES): CCCCCCCCCCCCOS(=O)(=O)[O-].[Na+] [sodium lauryl sulfate]
